Structures are written as SMILES. Starred links: 1 amine or outer side, 2 acyl side, 3 side chain; linkers in the order of their positions; H or OH if unused. Positions of bridges follow the written chain, without caps; N, C: chain ends. Non-standard residues stand in square brackets, D forms with d. Residues, ends and D or L forms follow the SMILES beside them. Chains are numbered I, II in the order given. N(4-MeOBn)Gly = COc1ccc(CNCC(=O)O)cc1; N((CH2)3OiPr)Gly = CC(C)OCCCNCC(=O)O; X1 = CC(c1ccccc1)N(CC(=O)[*:2])[*:1]; NAllylGly = C=CCNCC(=O)O; Nleu = CC(C)CNCC(=O)O; Nme = COCCNCC(=O)O

In the assay the test system is SARS-CoV-2 D614G pseudovirus. Type of assay: cell-based, human H1299 cells.

Turning to `C=CCN(CC(=O)N(CC(=O)NC(CCCCN)C(=O)NC(CCSC)C(=O)NCCCCC(NC(=O)C(CCSC)NC(=O)C(CCCCN)NC(=O)CN(C(=O)CN(CC=C)C(=O)CN(Cc1ccc(OC)cc1)C(=O)CN(C(=O)CN(CCOC)C(=O)CNCC(C)C)C(C)c1ccccc1)C(C)c1ccccc1)C(N)=O)C(C)c1ccccc1)C(=O)CN(Cc1ccc(OC)cc1)C(=O)CN(C(=O)CN(CCOC)C(=O)CNCC(C)C)C(C)c1ccccc1` (centres unmarked) [ACE2P1D1] (I: H-[Nleu][Nme][X1][N(4-MeOBn)Gly][NAllylGly][X1]KMK-NH2 / II: H-[Nleu][Nme][X1][N(4-MeOBn)Gly][NAllylGly][X1]KM; amide I:9-II:C; configuration not given here), the “SARS-CoV-2 mutant pseudovirus infection” value is “effective in inhibiting SARS-CoV-2 mutant pseudovirus infection”.
The value for `COCCN(CC(=O)NC(CCCCN)C(=O)NC(CCSC)C(=O)NCCCCC(NC(=O)C(CCSC)NC(=O)C(CCCCN)NC(=O)CN(CCOC)C(=O)CN(CC(C)C)C(=O)CN(CC(C)C)C(=O)CN(CCCOC(C)C)C(=O)CN(Cc1ccc(OC)cc1)C(=O)CNCc1ccc(OC)cc1)C(N)=O)C(=O)CN(CC(C)C)C(=O)CN(CC(C)C)C(=O)CN(CCCOC(C)C)C(=O)CN(Cc1ccc(OC)cc1)C(=O)CNCc1ccc(OC)cc1` (centres unmarked) [ACE2P2D1] (I: H-[N(4-MeOBn)Gly][N(4-MeOBn)Gly][N((CH2)3OiPr)Gly][Nleu][Nleu][Nme]KMK-NH2 / II: H-[N(4-MeOBn)Gly][N(4-MeOBn)Gly][N((CH2)3OiPr)Gly][Nleu][Nleu][Nme]KM; amide I:9-II:C; configuration not given here) was “effective in inhibiting SARS-CoV-2 mutant pseudovirus infection”.
